From US20080125432A1 (Devgen NV, priority 2004, published 2008)

System: arterially perfused rabbit left ventricular wedge preparation
Experiment: Arterially perfused rabbit left ventricular wedge preparation (QT, Tp-e, EAD, TdP)
Settings: 2000 ms BCL; for Tp-e: control 52.2 ± 3.7; for QT: control 288.2 ± 11.1; for EAD: events per preparations
Excerpt: The compounds were checked for their effect on the QT interval, the Tp-e interval (Yan and Antzelevitch, Circulation 1998; 98:1928-1936; Yan et al, Circulation 2001; 103:2851-2856) that approximates closely to transmural dispersion of repolarization (TDR), the Tp-e/QT ratio that reflects the potential of phase 2 early afterdepolarization (EAD) development in sub- and/or endocardium (Joshi et al, Journal of Electrocardiology, 2004, 34 (suppl): 7-14) and the phenomena dependent on phase 2 EAD (i.e. R on T extrasystole and TdP) in the isolated arterially-perfused rabbit ventricular wedge preparation.
Female rabbits weighting 2.5-3 kg were anticoagulated with heparin and anesthetized with pentobarbital (30-35 mg/kg, i.v.). The chest was opened via left thoracotomy, and the heart was excised and placed in a cardioplegic solution consisting of cold (4° C.) normal Tyrode s solution (in mmol/l: NaCl 129, KCl 4.0, CaCl2 1.8, NaH2PO4 0.9, MgSO4 0.5, NaHCO3 20, glucose 5.5). A transmural wedge, approximately 1.5 cm wide and 2-3 cm long, was dissected from the left ventricle and rapidly cannulated via the left anterior descending artery or the circumflex artery and perfused with cardioplegic solution for <4 min. The preparation was then transferred to a tissue bath (100 ml) and perfused with warm (35.7±0.1° C.) Tyrode's solution containing 4 mM K^+ buffered ? with 95% O2 and 5% CO2. Perfusion pressure was set at 40-50 mmHg by using a peristaltic pump. The preparation was paced at a basic cycle length of 1000 ms and allowed to equilibrate for approximately 1 h, the time necessary to achieve electrical stability. Electrical pacing was delivered via bipolar silver electrodes insulated except at the tips and applied to the endocardial surface.
After the preparation equilibrated for one hour, the experiment was initiated. During the infusion of the compounds, the preparation was stimulated from the endocardium at basic cycle lengths of 1000 ms from the beginning of the infusion to the 20th minute and then at 2000 ms from the 20th minute to the 30th minute. At the end of each pacing cycle length, the ECG signal was sampled for 1 to 2 min at a sampling rate of 1562 Hz (Spike 2 software, CED, England)
A transmural ECG signal was recorded in all experiments. The QT interval was defined as the time from the onset of the QRS to the point at which the final downslope of the T wave across isoelectric line. The QT interval values were derived from the mean values of four consecutive beats. (Yan and Antzelevitch, Circulation 1998; Yan et al, Circulation 2001; 103:2851-2856; and Antzelevitch, Journal of Electrocardiology 2004; 37(Suppl): 15-24).

With `COc1ccccc1Nc1nc(C)c(C(=O)N[C@H]2CCC[C@@H]2OCc2ccccc2)s1` [Compound 68, 2-(2-methoxy-phenylamino)-4-methyl-thiazole-5-carboxylic acid (1S,2S)-2-(benzyloxycyclopent-1-yl) amide] the “TdP Score” value (1 μmol/l) was 0.0 ± 0.0, the “Tp-e” value (1 μmol/l) was 52.0 ± 3.9 ms and the “QT” value (1 μmol/l) was 287.6 ± 11.4 ms. The EAD (1 μmol/l) was 0/5, the “TdP Score” value (3 μmol/l) was 0.0 ± 0.0 and the “Tp-e” value (3 μmol/l) was 51.4 ± 4.0 ms. For the same molecule, the “QT” value (3 μmol/l) was 286.6 ± 12.0 ms and the EAD (3 μmol/l) was 0/5.
